Columns and labels:
Assay in all cases: relative viability (nuclei count vs DMSO), 5 days (fraction); higher = more cells survive
[1] = compound: O=C(Nc1cccc(C(F)(F)F)c1)Nc1cc(S(=O)(=O)NC2CC2)ccc1-c1ccsc1 [AGI-6780] + C[C@]1(O)C[C@@H](c2nc(-c3ccc4ccc(-c5ccccc5)nc4c3)c3c(N)nccn32)C1 [Linsitinib] (partner 1 µM)
Summary of the method: (§1)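 A single step with final 0.05% Triton X-100, 1% formaldehyde and 1 ug/ml Hoechst fixed the cells and stained nuclei 5 days after treatment. Lung cancer cell lines in 1536-well plates had been treated by pin tool the day after seeding with one drug alone or a fixed anchor-drug dose plus five library-drug doses (not always all listed) in √10 steps, and nuclei were counted on 4× images. Relative viability is the ratio of nuclei in treated wells to nuclei in vehicle wells, taken as the median of duplicate plates.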

[2] = compound: O=C(Nc1cccc(C(F)(F)F)c1)Nc1cc(S(=O)(=O)NC2CC2)ccc1-c1ccsc1 [AGI-6780] + CC1(C)CCC(c2ccc(Cl)cc2)=C(CN2CCN(c3ccc(C(=O)NS(=O)(=O)c4ccc(N[C@H](CCN5CCOCC5)CSc5ccccc5)c(S(=O)(=O)C(F)(F)F)c4)cc3)CC2)C1 [Navitoclax] (partner 0.5 µM)
Summary of the method: as §1

[3] = compound: O=C(Nc1cccc(C(F)(F)F)c1)Nc1cc(S(=O)(=O)NC2CC2)ccc1-c1ccsc1 [AGI-6780] + CCNC(=O)c1noc(-c2cc(C(C)C)c(O)cc2O)c1-c1ccc(CN2CCOCC2)cc1 [Luminespib] (partner 0.01 µM)
Summary of the method: as §1

[4] = compound: O=C(Nc1cccc(C(F)(F)F)c1)Nc1cc(S(=O)(=O)NC2CC2)ccc1-c1ccsc1 [AGI-6780] + COc1cc2c(Oc3ccc(NC(=O)C4(C(=O)Nc5ccc(F)cc5)CC4)cc3F)ccnc2cc1OCCCN1CCOCC1 [Foretinib] (partner 0.25 µM)
Summary of the method: as §1

Cell Line | relative viability ([1]; first compound 0.08 µM) | relative viability ([1]; first compound 0.253 µM) | relative viability ([1]; first compound 0.8 µM) | relative viability ([1]; first compound 2.53 µM) | relative viability ([1]; first compound 8 µM) | relative viability ([2]; first compound 0.08 µM) | relative viability ([2]; first compound 0.253 µM) | relative viability ([2]; first compound 0.8 µM) | relative viability ([2]; first compound 2.53 µM) | relative viability ([2]; first compound 8 µM) | relative viability ([3]; first compound 0.08 µM) | relative viability ([3]; first compound 0.253 µM) | relative viability ([3]; first compound 0.8 µM) | relative viability ([3]; first compound 2.53 µM) | relative viability ([3]; first compound 8 µM) | relative viability ([4]; first compound 0.08 µM) | relative viability ([4]; first compound 0.253 µM) | relative viability ([4]; first compound 0.8 µM) | relative viability ([4]; first compound 2.53 µM) | relative viability ([4]; first compound 8 µM)
201T | 1.06 | 1.06 | 1.02 | 0.993 | 1.01 | 1.26 | 1.19 | 1.24 | 1.18 | 1.26 | 1.09 | 1.04 | 1.06 | 0.988 | 1.08 | 1.09 | 1.08 | 1.2 | 1.09 | 1.05
A549 | 0.585 | 0.594 | 0.701 | 0.452 | 0.545 | 1.31 | 1.27 | 1.37 | 1.13 | 1.23 | – | – | – | – | – | 1.04 | 0.956 | 0.88 | 0.729 | 1.07
A-427 | 1.09 | 1.07 | 1.1 | 1.03 | 1.12 | 0.942 | 0.922 | 1 | 0.81 | 0.942 | 0.943 | 0.717 | 0.882 | 0.802 | 0.97 | 0.991 | 0.951 | 1.15 | 0.825 | 1.19
ABC-1 | 0.756 | 0.501 | 0.835 | 0.736 | 0.601 | – | – | – | – | – | 0.58 | 0.447 | 0.63 | 0.821 | 0.408 | 1.13 | 1.17 | 1.11 | 1.07 | 0.941
BEN | 0.894 | 0.845 | 1.07 | – | 0.971 | 0.0592 | 0.0703 | 0.0549 | – | 0.0845 | 0.355 | 0.331 | 0.37 | 0.33 | 0.358 | 0.481 | 0.654 | 0.662 | 0.533 | 0.619
CAL-12T | 0.771 | 0.726 | 0.72 | 1 | 0.892 | 1.2 | 1.17 | 1.38 | 1.53 | 1.25 | 0.245 | 0.58 | 0.644 | 0.476 | 0.402 | 1 | 1.15 | 1.13 | 1.34 | 1.11
COR-L23 | 0.969 | 0.766 | 0.77 | 1.08 | 0.891 | 1.01 | 0.961 | 0.985 | 1.02 | 1.11 | 0.772 | 0.641 | 0.695 | 0.663 | 0.643 | 1.03 | 0.948 | 0.883 | 1.06 | 0.837
COR-L 105 | 0.989 | 0.946 | 0.941 | 0.808 | 0.952 | 0.918 | 0.62 | 0.841 | 0.862 | 0.763 | 0.81 | 0.654 | 0.725 | 0.618 | 0.535 | 1.09 | 0.922 | 0.962 | 1.25 | 0.981
ChaGo-K-1 | – | – | – | – | – | 0.894 | 1.25 | 1.15 | 0.746 | 0.992 | 0.573 | 0.467 | 0.64 | 0.497 | 0.76 | 0.986 | 0.977 | 0.946 | 0.751 | 0.948
EKVX | 1.09 | 1.03 | 0.966 | 1.05 | 1.04 | 1.02 | 0.879 | 0.935 | 0.717 | 0.978 | 0.916 | 0.877 | 0.989 | 0.918 | 0.847 | 0.684 | 0.91 | 0.756 | 0.399 | 0.849
EMC-BAC-2 | 0.845 | 0.82 | 0.835 | 0.782 | 0.822 | 1.19 | 1.14 | 1.23 | 1.14 | 1.17 | 1.2 | 1.24 | 1.17 | 0.947 | 1.18 | 1.05 | 1.04 | 0.961 | 0.842 | 1.18
EPLC-272H | 1.28 | 1.43 | 1.21 | 1.03 | 1.11 | 1.17 | 1.37 | 1.02 | 0.918 | 1.08 | – | 0.359 | 0.267 | 0.166 | 0.244 | – | 0.762 | 0.891 | 0.489 | 0.619
H3255 | 1 | 0.947 | 0.96 | 0.968 | 0.969 | 0.395 | 0.537 | 0.688 | 0.292 | 0.516 | 0.808 | 0.925 | 0.905 | 0.852 | 0.949 | 0.928 | 0.798 | 1.03 | 0.909 | 0.85
HARA | 0.921 | 0.949 | 0.841 | 0.971 | 0.985 | 1.2 | 1.15 | 1.09 | 1.19 | 1.19 | 0.787 | 0.594 | 0.177 | 0.944 | 0.93 | 0.957 | 0.864 | 0.963 | 0.83 | 0.91
